{
  "source": "paper PMC12030062",
  "about": "“From In Vitro Cytotoxicity to In Vivo Zebrafish Assays: A Study on 3,3-Dichloro β-, γ- and δ-Lactams and Their Biological Activity Profiles” (Pharmaceuticals, 2025)",
  "key": {"[1]": {"tested_on": "A431 cell line (squamous cell carcinoma)", "test": "Cell viability, NRU assay, A431", "format": "cell-based, human", "experimental": "(§1) Two different endpoints, 3-(4,5-dimethyl-2-thiazolyl)-2,5-diphenyltetrazolium bromide (MTT) and neutral red uptake (NRU), were used to assess differences in cell-induced cytotoxicity. […] In addition, NRU evaluates the interaction of these drugs with the plasmatic membrane. Cell responses were determined from the MTT [16] and NRU [17] assays, using the two proposed cell lines. Cytotoxicity assays were performed at concentrations equal to 80 and 250 µg/mL. The IC50 value, referring to the half-maximal inhibitory concentration, was determined as a key parameter in cytotoxicity studies (Table 1). It plays a crucial role in evaluating cell viability and assessing cellular responses to various drugs or toxins. For cases where IC50 values were below 80 µg/mL, additional studies at lower concentrations were conducted to accurately determine these values. […] The selectivity index (SI), used as a measurement of action against the tumor cell line in comparison with a normal cell line, was also included.\n(§2) • In Vitro Assay Using Human Erythrocytes • - Acquisition and Extraction of the Erythrocytes Human blood samples were obtained from the Banc de Sang i Teixits de Barcelona (Spain) from the Catalan Department of Health. Blood was deposited in tubes with the anticoagulant EDTA-K3. Blood samples were centrifuged at 3000 rpm and 4 °C for 10 min (Megafuge 2.0 R. Heraeus Instruments, Hanau, Germany) to induce sedimentation. Plasma was extracted with a Pasteur pipette. Next, the residual pellet was washed with PBS at pH 7.4. This procedure was repeated three times to remove residual leukocytes and platelets and to concentrate the erythrocytes. Following the last wash, the erythrocyte suspension was diluted (1:1) in PBS at pH 7.4 to obtain a suitable erythrocyte suspension (cell density of 8 × 10^9 cell/mL). • - Hemolysis Assay The hemolysis assay determined the capability of different compounds to induce the hemolysis of the erythrocyte membrane. Stock solutions of each compound at 1 mg/mL in PBS at pH 7.4 were prepared. Different volumes (10–80 μL) were placed in polystyrene tubes, and an aliquot of 25 µL of the erythrocyte suspensions was added to each tube. The final volume was 1 mL. The tubes were incubated at room temperature under rotatory conditions. Then, the tubes were centrifuged at 10,000 rpm for 5 min. The supernatants’ absorbance at 540 nm (Shimadzu UV-160A, Shimadzu, Duisburg, Germany) was compared with that of the positive (erythrocytes hemolyzed with distilled water) and negative (erythrocyte suspension in PBS at pH 7.4) controls. The degree of hemolysis was determined using the following equation: Hemolysis (%) = 100 × (Abs − Abs0)/(Abs100 − Abs0) where Abs, Abs0, and Abs100 are the absorbance of the test samples, of the suspension treated with isotonic phosphate–buffered saline (PBS), and of the suspension of complete hemolysis treated with distilled water, respectively. • In Vitro Essay Using Cell Cultures The murine Swiss albino fibroblasts (3T3) and the squamous cell carcinoma (A431) cell lines were obtained from Celltec UB. Cells were grown in DMEM medium (4.5 g/L glucose) supplemented with 10% (v/v) FBS, 2 mM L-glutamine, 100 U/mL penicillin, and 100 µg/mL streptomycin at 37 °C with 5% CO2. Cells were routinely cultured in 75 cm^2 culture flasks and were trypsinized using trypsin–EDTA when the cells reached approximately 80% confluence. The trypan blue assay, which allows for the direct identification and enumeration of the live (unstained) and dead (blue) cells in the cell population, was used to evaluate the viability of the cells in the cell suspension obtained. • - Cell Viability Assays Cell lines of 3T3 (1 × 10^5 cells/mL) and A431 (5 × 10^4 cells/mL) were grown at defined densities in the 60 central wells of a 96-well plate. The cells were incubated for 24 h in 5% CO2 at 37 °C. […]"}, "[2]": {"tested_on": "murine Swiss albino fibroblast (3T3) cell line", "test": "Cell viability, MTT assay, 3T3", "format": "cell-based", "details": "24 h incubation, MTT endpoint", "experimental": "as §1, §2"}},
  "data": [
    {"smiles": "CC(C)(C)N1C(=O)C(Cl)(Cl)C1c1ccccc1", "note": "(centres unmarked) [Compound 1]", "values": [
      {"measurement": "IC50 (NRU) A431", "setting": "[1]; 24 h incubation, NRU endpoint, A431", "value": "35.74 ± 3.24", "unit": "µg/mL"},
      {"measurement": "IC50", "setting": "[1]; Homo sapiens, A-431, 24 h, 24 h incubation, NRU endpoint, A431", "value": 35, "unit": "µg/mL"},
      {"measurement": "SI (NRU), selectivity index", "setting": "[1]; SI = IC50 (3T3)/IC50 (A431), NRU", "value": ">>6.99"},
      {"measurement": "IC50 (MTT) 3T3", "setting": "[2]", "value": "210.42 ± 2.40", "unit": "µg/mL"},
      {"measurement": "IC50", "setting": "[2]; Mus musculus, 24 h", "value": 210, "unit": "µg/mL"}
    ]}
  ]
}
